Assay results taken from patent publication US20250312462A1, “PAK1 DEGRADERS AND METHODS OF USE THEREOF” (INSTITUTE FOR CANCER RESEARCH D/B/A THE RESEARCH INSTITUTE …, priority 2022, published 2025).

Key:
[1] = target: CLK2 (Homo sapiens, UniProt P49760); experiment: KINOMEscan; settings: read-out: Percent Control
Protocol: (§1) The kinase engagement assay (KINOMEscan®) was performed by DiscoverX assessing binding abilities toward a set of kinases.

[2] = target: PAK1 (Homo sapiens, UniProt Q13153); experiment: Global multiplexed mass spectrometry proteomics in MOLT4 cells; format: cell-based; set-up: endogenous in cells; host or cells: MOLT4; settings: 1 μM, 5 hours
Sequence of PAK1 (Q13153 whole entry): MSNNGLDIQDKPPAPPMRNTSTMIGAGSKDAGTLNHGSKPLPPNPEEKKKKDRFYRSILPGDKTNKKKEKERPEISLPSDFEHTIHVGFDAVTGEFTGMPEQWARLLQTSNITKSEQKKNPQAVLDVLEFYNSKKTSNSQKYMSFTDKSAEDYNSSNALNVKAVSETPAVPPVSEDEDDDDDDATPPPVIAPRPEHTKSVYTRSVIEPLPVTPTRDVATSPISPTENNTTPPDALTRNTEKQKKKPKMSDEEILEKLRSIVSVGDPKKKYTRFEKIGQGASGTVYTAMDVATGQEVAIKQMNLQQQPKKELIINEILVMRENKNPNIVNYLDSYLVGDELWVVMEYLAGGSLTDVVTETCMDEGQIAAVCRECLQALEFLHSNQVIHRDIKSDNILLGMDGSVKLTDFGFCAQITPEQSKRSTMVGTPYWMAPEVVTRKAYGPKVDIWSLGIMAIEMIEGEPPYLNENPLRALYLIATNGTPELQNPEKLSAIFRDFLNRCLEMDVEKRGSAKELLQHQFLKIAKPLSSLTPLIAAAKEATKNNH
Protocol: MOLT4 cells were treated with DMSO in biological triplicate and 1 μM BJG-05-039 for 5 hours and harvested by centrifugation. Cell lysis was performed by the addition of Urea buffer (8 M Urea, 50 mM NaCl, 50 mM 4-(2-hydroxyethyl)-1-piperazineethanesulfonic acid (EPPS) pH 8.5, Protease and Phosphatase inhibitors) followed by manual homogenization by 20 passes through a 21-gauge (1.25 in. long) needle. Lysate was clarified by centrifugation at 4° C. and protein quantified using bradford (Bio-Rad) assay. 100 μg of protein for each sample was reduced, alkylated and precipitated using methanol/chloroform as described (Donovan, et al. (2018) Elife 7: e38430). The resulting precipitated protein was resuspended in 4 M Urea, 50 mM HEPES pH 7.4, buffer for solubilization, followed by dilution to 1 M urea with the addition of 200 mM EPPS, pH 8. Proteins were digested for 12 hours at room temperature with LysC (1:50 ratio), followed by dilution to 0.5 M urea and a second digestion step was performed by addition of trypsin (1:50 ratio) for 6 hours at 37° C. […]
Quantification was performed using a MS3-based TMT method as described (Donovan et al. (2020) Cell 183(6):1714-1731). […]
Proteome Discoverer 2.4 (Thermo Fisher Scientific) was used for .RAW file processing and controlling peptide and protein level false discovery rates, assembling proteins from peptides, and protein quantification from peptides. […]

[3] = target: ZAP70 (Homo sapiens, UniProt P43403); experiment: KINOMEscan; settings: read-out: Percent Control
Sequence of ZAP70 (P43403 whole entry): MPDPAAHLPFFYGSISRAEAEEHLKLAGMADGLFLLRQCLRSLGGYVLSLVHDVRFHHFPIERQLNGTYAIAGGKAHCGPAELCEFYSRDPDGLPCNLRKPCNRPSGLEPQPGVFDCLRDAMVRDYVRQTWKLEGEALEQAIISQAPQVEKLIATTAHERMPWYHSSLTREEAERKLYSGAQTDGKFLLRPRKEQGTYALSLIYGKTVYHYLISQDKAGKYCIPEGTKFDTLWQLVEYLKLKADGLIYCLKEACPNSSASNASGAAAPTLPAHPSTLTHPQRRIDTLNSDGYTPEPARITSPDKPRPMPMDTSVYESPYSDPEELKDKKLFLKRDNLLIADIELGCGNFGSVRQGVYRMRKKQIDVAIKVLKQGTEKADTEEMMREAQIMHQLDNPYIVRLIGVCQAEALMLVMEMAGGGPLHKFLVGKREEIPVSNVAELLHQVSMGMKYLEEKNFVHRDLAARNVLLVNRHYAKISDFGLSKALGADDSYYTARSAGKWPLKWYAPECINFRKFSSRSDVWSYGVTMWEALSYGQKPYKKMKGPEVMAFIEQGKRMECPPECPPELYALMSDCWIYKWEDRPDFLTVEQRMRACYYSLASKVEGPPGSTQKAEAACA
Protocol: as §1

[4] = target: CSNK1A1 (Homo sapiens, UniProt P48729); experiment: KINOMEscan; settings: read-out: Percent Control
Protocol: as §1

[5] = target: MYLK2 (Homo sapiens, UniProt Q9H1R3); experiment: KINOMEscan; settings: read-out: Percent Control
Sequence of MYLK2 (Q9H1R3 whole entry): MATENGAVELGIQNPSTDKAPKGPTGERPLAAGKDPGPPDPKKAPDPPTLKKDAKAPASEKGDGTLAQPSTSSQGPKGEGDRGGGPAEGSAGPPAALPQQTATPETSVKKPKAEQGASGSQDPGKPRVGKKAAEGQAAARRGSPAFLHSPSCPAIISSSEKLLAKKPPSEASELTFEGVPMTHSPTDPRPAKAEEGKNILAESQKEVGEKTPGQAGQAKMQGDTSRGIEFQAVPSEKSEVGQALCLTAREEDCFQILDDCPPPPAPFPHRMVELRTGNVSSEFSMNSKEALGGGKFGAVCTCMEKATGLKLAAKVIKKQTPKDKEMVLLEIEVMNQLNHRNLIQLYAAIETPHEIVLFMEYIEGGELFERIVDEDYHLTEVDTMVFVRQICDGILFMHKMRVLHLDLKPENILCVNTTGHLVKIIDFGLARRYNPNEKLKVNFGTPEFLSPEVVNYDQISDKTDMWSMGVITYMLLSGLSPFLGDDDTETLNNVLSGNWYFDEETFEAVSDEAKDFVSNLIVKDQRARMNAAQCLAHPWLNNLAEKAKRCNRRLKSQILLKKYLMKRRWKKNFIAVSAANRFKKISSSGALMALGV
Protocol: as §1

[6] = target: WNK2 (Homo sapiens, UniProt Q9Y3S1); experiment: KINOMEscan; settings: read-out: Percent Control
Protocol: as §1

[7] = target: NEK6 (Homo sapiens, UniProt Q9HC98); experiment: KINOMEscan; settings: read-out: Percent Control
Protocol: as §1

[8] = target: EPHA4 (Homo sapiens, UniProt P54764); experiment: KINOMEscan; settings: read-out: Percent Control
Protocol: as §1

[9] = target: CDK2 (Homo sapiens, UniProt P24941); experiment: KINOMEscan; settings: read-out: Percent Control
Protocol: as §1

[10] = target: PIK3CA(E542K) (Homo sapiens, UniProt P42336, E542K); experiment: KINOMEscan; settings: read-out: Percent Control
Protocol: as §1

[11] = target: TLK2 (Homo sapiens, UniProt Q86UE8); experiment: KINOMEscan; settings: read-out: Percent Control
Sequence of TLK2 (Q86UE8 whole entry): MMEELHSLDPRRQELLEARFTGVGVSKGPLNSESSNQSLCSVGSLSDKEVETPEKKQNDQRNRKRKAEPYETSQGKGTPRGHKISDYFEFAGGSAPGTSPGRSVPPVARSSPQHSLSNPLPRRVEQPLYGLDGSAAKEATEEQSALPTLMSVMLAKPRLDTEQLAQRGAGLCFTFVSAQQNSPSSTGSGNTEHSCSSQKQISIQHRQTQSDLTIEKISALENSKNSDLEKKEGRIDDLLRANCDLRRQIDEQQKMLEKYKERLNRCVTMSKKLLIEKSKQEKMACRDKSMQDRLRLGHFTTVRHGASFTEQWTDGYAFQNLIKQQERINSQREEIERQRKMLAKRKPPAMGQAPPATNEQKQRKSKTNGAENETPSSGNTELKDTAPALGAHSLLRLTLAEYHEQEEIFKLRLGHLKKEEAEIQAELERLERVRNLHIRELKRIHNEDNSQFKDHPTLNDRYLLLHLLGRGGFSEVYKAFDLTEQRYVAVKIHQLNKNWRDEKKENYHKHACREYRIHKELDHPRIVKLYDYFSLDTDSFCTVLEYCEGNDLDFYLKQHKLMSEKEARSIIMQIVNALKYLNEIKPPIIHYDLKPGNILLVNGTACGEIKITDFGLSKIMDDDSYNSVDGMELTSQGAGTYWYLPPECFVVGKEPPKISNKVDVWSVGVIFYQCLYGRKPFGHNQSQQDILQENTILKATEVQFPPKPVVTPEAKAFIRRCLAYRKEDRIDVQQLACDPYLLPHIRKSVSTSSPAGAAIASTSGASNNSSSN
Protocol: as §1

[12] = target: EPHA7 (Homo sapiens, UniProt Q15375); experiment: KINOMEscan; settings: read-out: Percent Control
Protocol: as §1

[13] = target: STK36 (Homo sapiens, UniProt Q9NRP7); experiment: KINOMEscan; settings: read-out: Percent Control
Protocol: as §1

[14] = target: NEK2 (Homo sapiens, UniProt P51955); experiment: KINOMEscan; settings: read-out: Percent Control
Protocol: as §1

[15] = target: SRPK2 (Homo sapiens, UniProt P78362); experiment: KINOMEscan; settings: read-out: Percent Control
Protocol: as §1

[16] = target: ASK2 (Homo sapiens, UniProt O95382); experiment: KINOMEscan; settings: read-out: Percent Control
Sequence of ASK2 (O95382 whole entry): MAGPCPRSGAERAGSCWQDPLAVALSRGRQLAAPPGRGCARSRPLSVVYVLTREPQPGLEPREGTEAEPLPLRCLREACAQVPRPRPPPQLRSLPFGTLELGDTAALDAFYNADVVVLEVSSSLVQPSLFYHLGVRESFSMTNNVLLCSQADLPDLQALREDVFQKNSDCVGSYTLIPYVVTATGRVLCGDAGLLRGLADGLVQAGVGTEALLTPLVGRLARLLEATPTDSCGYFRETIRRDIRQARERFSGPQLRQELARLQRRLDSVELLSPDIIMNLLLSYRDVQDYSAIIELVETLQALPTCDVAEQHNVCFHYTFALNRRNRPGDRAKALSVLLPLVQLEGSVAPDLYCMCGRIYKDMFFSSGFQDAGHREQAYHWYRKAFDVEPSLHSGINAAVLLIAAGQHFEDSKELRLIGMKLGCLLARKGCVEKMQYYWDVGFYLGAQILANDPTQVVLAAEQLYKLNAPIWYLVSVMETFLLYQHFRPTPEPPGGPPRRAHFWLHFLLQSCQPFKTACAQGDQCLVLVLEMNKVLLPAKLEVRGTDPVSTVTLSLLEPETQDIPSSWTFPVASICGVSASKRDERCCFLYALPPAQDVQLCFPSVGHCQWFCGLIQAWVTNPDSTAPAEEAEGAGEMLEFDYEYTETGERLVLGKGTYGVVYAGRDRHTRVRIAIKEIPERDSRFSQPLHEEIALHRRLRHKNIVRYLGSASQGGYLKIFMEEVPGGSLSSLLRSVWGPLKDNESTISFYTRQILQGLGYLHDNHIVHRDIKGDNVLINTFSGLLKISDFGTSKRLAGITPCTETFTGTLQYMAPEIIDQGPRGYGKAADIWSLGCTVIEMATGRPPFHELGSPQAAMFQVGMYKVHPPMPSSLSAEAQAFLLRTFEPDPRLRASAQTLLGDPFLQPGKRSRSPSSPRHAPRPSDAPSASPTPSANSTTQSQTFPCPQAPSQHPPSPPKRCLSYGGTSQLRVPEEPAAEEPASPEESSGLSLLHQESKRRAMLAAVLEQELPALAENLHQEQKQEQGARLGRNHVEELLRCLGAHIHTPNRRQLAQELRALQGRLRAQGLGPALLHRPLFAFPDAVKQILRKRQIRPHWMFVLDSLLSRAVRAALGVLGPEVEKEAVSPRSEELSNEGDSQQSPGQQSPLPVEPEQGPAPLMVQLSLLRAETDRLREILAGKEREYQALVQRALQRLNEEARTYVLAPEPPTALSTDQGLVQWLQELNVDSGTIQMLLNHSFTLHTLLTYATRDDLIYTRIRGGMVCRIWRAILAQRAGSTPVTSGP
Protocol: as §1

[17] = target: GSK3A (Homo sapiens, UniProt P49840); experiment: KINOMEscan; settings: read-out: Percent Control
Sequence of GSK3A (P49840 whole entry): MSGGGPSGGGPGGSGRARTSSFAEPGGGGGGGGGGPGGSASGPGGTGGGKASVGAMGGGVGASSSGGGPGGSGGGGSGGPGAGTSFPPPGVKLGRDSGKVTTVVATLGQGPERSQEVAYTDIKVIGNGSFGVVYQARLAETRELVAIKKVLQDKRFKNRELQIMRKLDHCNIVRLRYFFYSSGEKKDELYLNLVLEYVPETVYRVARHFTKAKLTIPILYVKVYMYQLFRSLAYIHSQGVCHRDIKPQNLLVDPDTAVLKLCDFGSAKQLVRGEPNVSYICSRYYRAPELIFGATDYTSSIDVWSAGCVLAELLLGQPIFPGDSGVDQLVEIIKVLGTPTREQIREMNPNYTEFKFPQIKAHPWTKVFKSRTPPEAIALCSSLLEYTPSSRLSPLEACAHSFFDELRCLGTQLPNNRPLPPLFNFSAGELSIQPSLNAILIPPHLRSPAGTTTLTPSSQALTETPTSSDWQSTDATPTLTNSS
Protocol: as §1

Sequence of CLK2 (P49760 whole entry): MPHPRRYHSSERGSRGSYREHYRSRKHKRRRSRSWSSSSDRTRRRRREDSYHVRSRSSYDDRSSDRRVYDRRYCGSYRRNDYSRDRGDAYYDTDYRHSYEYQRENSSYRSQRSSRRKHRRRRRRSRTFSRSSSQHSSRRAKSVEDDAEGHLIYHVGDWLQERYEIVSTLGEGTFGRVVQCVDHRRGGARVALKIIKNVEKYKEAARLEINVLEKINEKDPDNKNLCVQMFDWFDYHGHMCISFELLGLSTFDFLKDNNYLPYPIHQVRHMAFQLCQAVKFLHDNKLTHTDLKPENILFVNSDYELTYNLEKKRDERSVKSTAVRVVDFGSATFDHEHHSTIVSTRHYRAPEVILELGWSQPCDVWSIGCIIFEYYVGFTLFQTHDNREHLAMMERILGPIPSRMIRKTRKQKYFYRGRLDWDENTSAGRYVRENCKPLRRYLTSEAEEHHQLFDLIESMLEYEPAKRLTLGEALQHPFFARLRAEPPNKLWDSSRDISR

## O=C1CCC(N2C(=O)c3cccc(NCCCCCCCCNC(=O)N4CC[C@H](NC5=Nc6cc(F)ccc6N(CC(F)F)c6ccc(Cl)cc65)C4)c3C2=O)C(=O)N1 (stereo partly drawn) [BJG-05-039, (3S)-3-((2-Chloro-5-(2,2-difluoroethyl)-8-fluoro-5H-dibenzo[b,e][1,4]diazepin-11-yl)amino)-N-(8-((2-(2,6-dioxopiperidin-3-yl)-1,3-dioxoisoindolin-4-yl)amino)octyl)pyrrolidine-1-carboxamide]
[1]
  remaining binding at 10 µM: 95%
[2]
  Change in protein abundance: significant downregulation of this kinase was not apparent
[3]
  remaining binding at 10 µM: 100%
[4]
  remaining binding at 10 µM: 93%
[5]
  remaining binding at 10 µM: 93%
[6]
  remaining binding at 10 µM: 89%
[7]
  remaining binding at 10 µM: 91%
[8]
  remaining binding at 10 µM: 82%
[9]
  remaining binding at 10 µM: 69%
[10]
  remaining binding at 10 µM: 91%
[11]
  remaining binding at 10 µM: 80%
[12]
  remaining binding at 10 µM: 90%
[13]
  remaining binding at 10 µM: 82%
[14]
  remaining binding at 10 µM: 52%
[15]
  remaining binding at 10 µM: 91%
[16]
  remaining binding at 10 µM: 78%
[17]
  remaining binding at 10 µM: 50%
